Each structure is given as a SMILES string. *1 amine or outer side, *2 acyl side, *3 side chain or, on linkers, in order; H or OH if unused. Where a SMILES comes first, the peptide text is derived from it. [ ]: non-standard residue; d: D form. Bip(4'-COOH) = N[C@@H](Cc1ccc(-c2ccc(C(=O)O)cc2)cc1)C(=O)O; 1Nal(3S-Me) = C[C@@H](c1cccc2ccccc12)[C@H](N)C(=O)O; hPhe(4-CF3) = N[C@@H](CCc1ccc(C(F)(F)F)cc1)C(=O)O; X8 = O=C([C@H](CCc1cccc(C(F)(F)F)c1)N[*:1])[*:2]; X13 = O=C([C@H](CCc1ccccc1C(F)(F)F)N[*:1])[*:2]; Ala(pyrimidin-5-yl) = N[C@@H](Cc1cncnc1)C(=O)O; Phe(4-COOH) = N[C@@H](Cc1ccc(C(=O)O)cc1)C(=O)O; Trp(7-aza) = N[C@@H](Cc1c[nH]c2ncccc12)C(=O)O; h3Pal(5-CN) = N#Cc1cncc(CC[C@H](N)C(=O)O)c1; Pro(4R-NH2) = N[C@H]1CN[C@H](C(=O)O)C1; Ala(4-THP) = N[C@@H](CC1CCOCC1)C(=O)O; AEF = NCCOc1ccc(C[C@H](N)C(=O)O)cc1; hTyr = N[C@@H](CCc1ccc(O)cc1)C(=O)O; 4Pal = N[C@@H](Cc1ccncc1)C(=O)O; dDab = NCC[C@@H](N)C(=O)O; dNMeA = CN[C@H](C)C(=O)O; Dab = NCC[C@H](N)C(=O)O; Aib = CC(C)(N)C(=O)O

T1 sequence (P01584 117-269): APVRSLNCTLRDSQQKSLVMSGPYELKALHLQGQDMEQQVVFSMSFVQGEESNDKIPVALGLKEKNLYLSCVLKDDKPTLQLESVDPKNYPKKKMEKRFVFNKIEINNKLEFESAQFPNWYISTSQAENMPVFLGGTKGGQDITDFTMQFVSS

The test concerns the target T1, Recombinant human IL-1β (Homo sapiens, UniProt P01584).
T1 construct: purchased BioLegend 579404
Put plainly: IL-6 assay in MRC5 cells: inhibition of IL-1β induced IL-6 secretion (AlphaLISA). The format is cell-based. To be noted: inhibition of IL-1β induced IL-6 secretion in MRC5 cells; IL-1β pre-incubated 1 hour with compound; read-out: MRC5 IC50. An outline of the steps: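 IL-1β at 2×EC80 in seeding medium (EMEM, 0.025% BSA) preincubated 1 h at ambient temperature with compound, then 3000 MRC5 cells/well added and incubated overnight at 37 °C, 5% CO2. IL-6 in conditioned medium quantified by AlphaLISA; IC50 from 4-parameter logistic fit.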
A general note: Alpha assays give light when donor and acceptor beads are brought close together.
As a reminder, the IC50 is the concentration at which inhibition is half-maximal. `CC(=O)NCCOc1ccc(C[C@@H]2NC(=O)[C@H](CCc3ccc(O)cc3)NC(=O)[C@@H](C)NC(=O)[C@H](CCN)NC(=O)[C@H](Cc3ccncc3)NC(=O)[C@H](Cc3ccc(-c4ccc(C(=O)O)cc4)cc3)NC(=O)CNC(=O)[C@@H](C)N(C)C(=O)[C@H](CC(=O)O)NC(=O)[C@H]([C@@H](C)c3cccc4ccccc34)NC(=O)[C@@H]3C[C@@H](N)CN3C(=O)CNC(=O)[C@H](Cc3ccc(C(=O)O)cc3)NC(=O)[C@H](Cc3c[nH]c4ccccc34)NC2=O)cc1` [Example 101] (cyclo([AEF](Ac)W[Phe(4-COOH)]G[Pro(4R-NH2)][1Nal(3S-Me)]D[dNMeA]G[Bip(4'-COOH)][4Pal][Dab][dA][hTyr])): the IC50 is 0.247 nM.
In the case of `CC(=O)NCCOc1ccc(C[C@@H]2NC(=O)[C@H](CCc3cncc(C#N)c3)NC(=O)[C@@H](CCN)NC(=O)CNC(=O)[C@H](Cc3ccncc3)NC(=O)[C@H](Cc3ccc(-c4ccc(C(=O)O)cc4)cc3)NC(=O)CNC(=O)[C@@H](C)N(C)C(=O)[C@H](CC(=O)O)NC(=O)[C@H]([C@@H](C)c3cccc4ccccc34)NC(=O)[C@@H]3C[C@@H](N)CN3C(=O)CNC(=O)[C@H](Cc3ccc(C(=O)O)cc3)NC(=O)[C@H](Cc3c[nH]c4ccccc34)NC2=O)cc1` [Example 102] (cyclo([AEF](Ac)W[Phe(4-COOH)]G[Pro(4R-NH2)][1Nal(3S-Me)]D[dNMeA]G[Bip(4'-COOH)][4Pal]G[dDab][h3Pal(5-CN)])) it was 0.0421 nM; in that of `CC(=O)NCCOc1ccc(C[C@@H]2NC(=O)[C@H](CCc3ccccc3C(F)(F)F)NC(=O)[C@@H](C)NC(=O)[C@H](CO)NC(=O)[C@H](Cc3ccncc3)NC(=O)[C@H](Cc3ccc(-c4ccc(C(=O)O)cc4)cc3)NC(=O)CNC(=O)[C@@H](C)N(C)C(=O)[C@H](CC(=O)O)NC(=O)[C@H]([C@@H](C)c3cccc4ccccc34)NC(=O)[C@@H]3C[C@@H](N)CN3C(=O)CNC(=O)[C@H](Cc3ccc(C(=O)O)cc3)NC(=O)[C@H](Cc3c[nH]c4ccccc34)NC2=O)cc1` [Example 103] (cyclo([AEF](Ac)W[Phe(4-COOH)]G[Pro(4R-NH2)][1Nal(3S-Me)]D[dNMeA]G[Bip(4'-COOH)][4Pal]S[dA][X13])), 0.066 nM.
In the case of `CC(=O)NCCOc1ccc(C[C@@H]2NC(=O)[C@H](CCc3cccc(C(F)(F)F)c3)NC(=O)[C@@H](C)NC(=O)[C@H](CO)NC(=O)[C@H](Cc3ccncc3)NC(=O)[C@H](Cc3ccc(-c4ccc(C(=O)O)cc4)cc3)NC(=O)CNC(=O)[C@@H](C)N(C)C(=O)[C@H](CC(=O)O)NC(=O)[C@H]([C@@H](C)c3cccc4ccccc34)NC(=O)[C@@H]3C[C@@H](N)CN3C(=O)CNC(=O)[C@H](Cc3ccc(C(=O)O)cc3)NC(=O)[C@H](Cc3c[nH]c4ccccc34)NC2=O)cc1` [Example 104] (cyclo([AEF](Ac)W[Phe(4-COOH)]G[Pro(4R-NH2)][1Nal(3S-Me)]D[dNMeA]G[Bip(4'-COOH)][4Pal]S[dA][X8])) it was 0.041 nM; in that of `CC(=O)NCCOc1ccc(C[C@@H]2NC(=O)[C@H](CCc3ccc(C(F)(F)F)cc3)NC(=O)[C@@H](C)NC(=O)[C@H](CO)NC(=O)[C@H](Cc3ccncc3)NC(=O)[C@H](Cc3ccc(-c4ccc(C(=O)O)cc4)cc3)NC(=O)CNC(=O)[C@@H](C)N(C)C(=O)[C@H](CC(=O)O)NC(=O)[C@H]([C@@H](C)c3cccc4ccccc34)NC(=O)[C@@H]3C[C@@H](N)CN3C(=O)CNC(=O)[C@H](Cc3ccc(C(=O)O)cc3)NC(=O)[C@H](Cc3c[nH]c4ccccc34)NC2=O)cc1` [Example 105] (cyclo([AEF](Ac)W[Phe(4-COOH)]G[Pro(4R-NH2)][1Nal(3S-Me)]D[dNMeA]G[Bip(4'-COOH)][4Pal]S[dA][hPhe(4-CF3)])), 0.091 nM.
For the compound `CC(=O)NCCOc1ccc(C[C@@H]2NC(=O)[C@H](CCc3cncc(C#N)c3)NC(=O)[C@@H](CCN)NC(=O)CNC(=O)[C@H](CC3CCOCC3)NC(=O)[C@H](Cc3ccc(-c4ccc(C(=O)O)cc4)cc3)NC(=O)CNC(=O)[C@@H](C)N(C)C(=O)[C@H](CC(=O)O)NC(=O)[C@H]([C@@H](C)c3cccc4ccccc34)NC(=O)[C@@H]3C[C@@H](N)CN3C(=O)CNC(=O)[C@H](Cc3ccc(C(=O)O)cc3)NC(=O)[C@H](Cc3c[nH]c4ccccc34)NC2=O)cc1` [Example 106] (cyclo([AEF](Ac)W[Phe(4-COOH)]G[Pro(4R-NH2)][1Nal(3S-Me)]D[dNMeA]G[Bip(4'-COOH)][Ala(4-THP)]G[dDab][h3Pal(5-CN)])), the half-maximal inhibitory concentration (IC50) is 0.0263 nM.
Take `CC(=O)NCCOc1ccc(C[C@@H]2NC(=O)[C@H](CCc3ccc(O)cc3)NC(=O)C(C)(C)NC(=O)CNC(=O)[C@H](CCCCN)NC(=O)[C@H](Cc3ccc(-c4ccc(C(=O)O)cc4)cc3)NC(=O)CNC(=O)[C@@H](C)N(C)C(=O)[C@H](CC(=O)O)NC(=O)[C@H]([C@@H](C)c3cccc4ccccc34)NC(=O)[C@@H]3C[C@@H](N)CN3C(=O)CNC(=O)[C@H](Cc3ccc(C(=O)O)cc3)NC(=O)[C@H](Cc3c[nH]c4ccccc34)NC2=O)cc1` [Example 107] (cyclo([AEF](Ac)W[Phe(4-COOH)]G[Pro(4R-NH2)][1Nal(3S-Me)]D[dNMeA]G[Bip(4'-COOH)]KG[Aib][hTyr])): the IC50 is 0.0582 nM.
On to `CC(=O)NCCOc1ccc(C[C@@H]2NC(=O)[C@H](CCc3ccc(O)cc3)NC(=O)[C@@H](C)NC(=O)CNC(=O)[C@H](CCCCN)NC(=O)[C@H](Cc3ccc(-c4ccc(C(=O)O)cc4)cc3)NC(=O)CNC(=O)[C@@H](C)N(C)C(=O)[C@H](CC(=O)O)NC(=O)[C@H]([C@@H](C)c3cccc4ccccc34)NC(=O)[C@@H]3C[C@@H](N)CN3C(=O)CNC(=O)[C@H](Cc3ccc(C(=O)O)cc3)NC(=O)[C@H](Cc3c[nH]c4ccccc34)NC2=O)cc1` [Example 108] (cyclo([AEF](Ac)W[Phe(4-COOH)]G[Pro(4R-NH2)][1Nal(3S-Me)]D[dNMeA]G[Bip(4'-COOH)]KG[dA][hTyr])), for which the 50% inhibitory concentration (IC50) was 0.102 nM.
In the case of `CC(=O)NCCOc1ccc(C[C@@H]2NC(=O)[C@H](CCc3ccc(O)cc3)NC(=O)[C@@H](C)N(C)C(=O)CNC(=O)[C@H](CCCCN)NC(=O)[C@H](Cc3ccc(-c4ccc(C(=O)O)cc4)cc3)NC(=O)CNC(=O)[C@@H](C)N(C)C(=O)[C@H](CC(=O)O)NC(=O)[C@H]([C@@H](C)c3cccc4ccccc34)NC(=O)[C@@H]3C[C@@H](N)CN3C(=O)CNC(=O)[C@H](Cc3ccc(C(=O)O)cc3)NC(=O)[C@H](Cc3c[nH]c4ccccc34)NC2=O)cc1` [Example 109] (cyclo([AEF](Ac)W[Phe(4-COOH)]G[Pro(4R-NH2)][1Nal(3S-Me)]D[dNMeA]G[Bip(4'-COOH)]KG[dNMeA][hTyr])) it was 0.0775 nM; in that of `CC(=O)NCCOc1ccc(C[C@@H]2NC(=O)[C@H](CCc3ccc(O)cc3)NC(=O)[C@@H](C)NC(=O)[C@H](CC(C)C)NC(=O)[C@H](CCCCN)NC(=O)[C@H](Cc3ccc(-c4ccc(C(=O)O)cc4)cc3)NC(=O)CNC(=O)[C@@H](C)N(C)C(=O)[C@H](CC(=O)O)NC(=O)[C@H]([C@@H](C)c3cccc4ccccc34)NC(=O)[C@@H]3C[C@@H](N)CN3C(=O)CNC(=O)[C@H](Cc3ccc(C(=O)O)cc3)NC(=O)[C@H](Cc3c[nH]c4ccccc34)NC2=O)cc1` [Example 110] (cyclo([AEF](Ac)W[Phe(4-COOH)]G[Pro(4R-NH2)][1Nal(3S-Me)]D[dNMeA]G[Bip(4'-COOH)]KL[dA][hTyr])), 0.195 nM.
In the case of `CC(=O)NCCOc1ccc(C[C@@H]2NC(=O)[C@H](CCc3ccc(C(F)(F)F)cc3)NC(=O)[C@@H](C)NC(=O)[C@H](CO)NC(=O)[C@H](CCCCN)NC(=O)[C@H](Cc3ccc(-c4ccc(C(=O)O)cc4)cc3)NC(=O)CNC(=O)[C@@H](C)N(C)C(=O)[C@H](CC(=O)O)NC(=O)[C@H]([C@@H](C)c3cccc4ccccc34)NC(=O)[C@@H]3C[C@@H](N)CN3C(=O)CNC(=O)[C@H](Cc3ccc(C(=O)O)cc3)NC(=O)[C@H](Cc3c[nH]c4ccccc34)NC2=O)cc1` [Example 111] (cyclo([AEF](Ac)W[Phe(4-COOH)]G[Pro(4R-NH2)][1Nal(3S-Me)]D[dNMeA]G[Bip(4'-COOH)]KS[dA][hPhe(4-CF3)])) it was 0.133 nM; in that of `CC(=O)NCCOc1ccc(C[C@@H]2NC(=O)[C@H](CCc3ccc(O)cc3)NC(=O)[C@@H](C)NC(=O)[C@H](CO)NC(=O)[C@H](CCCCN)NC(=O)[C@H](Cc3ccc(-c4ccc(C(=O)O)cc4)cc3)NC(=O)CNC(=O)[C@@H](C)N(C)C(=O)[C@H](CC(=O)O)NC(=O)[C@H]([C@@H](C)c3cccc4ccccc34)NC(=O)[C@@H]3C[C@@H](N)CN3C(=O)CNC(=O)[C@H](Cc3ccc(C(=O)O)cc3)NC(=O)[C@H](Cc3c[nH]c4ccccc34)NC2=O)cc1` [Example 112] (cyclo([AEF](Ac)W[Phe(4-COOH)]G[Pro(4R-NH2)][1Nal(3S-Me)]D[dNMeA]G[Bip(4'-COOH)]KS[dA][hTyr])), 0.0617 nM; in that of `CC(=O)NCCOc1ccc(C[C@@H]2NC(=O)[C@H](CCc3cncc(C#N)c3)NC(=O)[C@@H](CCN)NC(=O)CNC(=O)[C@H](Cc3cncnc3)NC(=O)[C@H](Cc3ccc(-c4ccc(C(=O)O)cc4)cc3)NC(=O)CNC(=O)[C@@H](C)N(C)C(=O)[C@H](CC(=O)O)NC(=O)[C@H]([C@@H](C)c3cccc4ccccc34)NC(=O)[C@@H]3C[C@@H](N)CN3C(=O)CNC(=O)[C@H](Cc3ccc(C(=O)O)cc3)NC(=O)[C@H](Cc3c[nH]c4ccccc34)NC2=O)cc1` [Example 113] (cyclo([AEF](Ac)W[Phe(4-COOH)]G[Pro(4R-NH2)][1Nal(3S-Me)]D[dNMeA]G[Bip(4'-COOH)][Ala(pyrimidin-5-yl)]G[dDab][h3Pal(5-CN)])), 0.0918 nM.
In the case of `CC(=O)NCCOc1ccc(C[C@@H]2NC(=O)[C@H](CCc3cncc(C#N)c3)NC(=O)[C@@H](CCN)NC(=O)CNC(=O)[C@H](Cc3c[nH]c4ncccc34)NC(=O)[C@H](Cc3ccc(-c4ccc(C(=O)O)cc4)cc3)NC(=O)CNC(=O)[C@@H](C)N(C)C(=O)[C@H](CC(=O)O)NC(=O)[C@H]([C@@H](C)c3cccc4ccccc34)NC(=O)[C@@H]3C[C@@H](N)CN3C(=O)CNC(=O)[C@H](Cc3ccc(C(=O)O)cc3)NC(=O)[C@H](Cc3c[nH]c4ccccc34)NC2=O)cc1` [Example 114] (cyclo([AEF](Ac)W[Phe(4-COOH)]G[Pro(4R-NH2)][1Nal(3S-Me)]D[dNMeA]G[Bip(4'-COOH)][Trp(7-aza)]G[dDab][h3Pal(5-CN)])) it was 0.0233 nM.

These data come from patent US20230406885A1, “CYCLIC PEPTIDES FOR TRAPPING INTERLEUKIN-1 BETA” (MERCK SHARP & DOHME LLC, priority 2022, published 2023).
